Reference: USRE38984E1, “Antifungal combination therapy” (Merck & Co., Inc., priority 1996, dated 2006)

How the values were obtained:
[1] = drug interaction and efficacy studies against disseminated candidiasis, aspergillosis and cryptococcosis (overall findings); assay type: in vivo
Protocol: (§1) Drug interaction and efficacy studies with Compound I combined with either AmB or FCZ against disseminated candidiasis, aspergillosis and cryptococcosis were performed.

C. neoformans [2] = test: drug interaction and efficacy study against cryptococcosis in mice; assay type: in vivo
Protocol: as §1

A. fumigatus [3] = test: broth microdilution antifungal susceptibility / drug combination testing in vitro (NCCLS M27-T); assay type: cell-based
From the text: (§2) This has been shown using a broth microdilution technique which is the standard method for antifungal susceptibility testing proposed by the NCCLS (protocol M27-T). Sub-inhibitory concentrations of Compound I in combination with sub-inhibitory concentrations of AmB and sub-inhibitory concentrations of FCZ were employed. The minimal inhibitory concentrations (MICS) for AmB and Compound I were defined as the lowest drug concentration at which there was an absence of growth.
(§3) Additional drug combination testing in vitro was performed to evaluate combinations of Compound I with AmB and FCZ against clinical isolates. There was no antagonism evident between Compound I and AmB against C. albicans, A. fumigatus and C. neoformans. Fractional inhibitory indices (FIC) were approximately 0.50 or lower, indicative of additive or synergistic activity.

C. albicans [4] = test: as above; assay type: cell-based
From the text: as §2, §3

C. neoformans [5] = test: as above; assay type: cell-based
From the text: as §2, §3

C. albicans [6] = test: drug interaction and efficacy study against disseminated candidiasis; assay type: in vivo; details: Compound I 0.03 mg/kg and lower plus AmB 0.03 mg/kg and lower
Protocol: as §1

A. fumigatus [7] = test: drug interaction and efficacy study against disseminated aspergillosis; assay type: in vivo; details: Compound I 0.008 mg/kg combined with AmB 0.12 mg/kg, over the compounds administered alone
Protocol: as §1

[8] = Compound I with AmB, sub-inhibitory concentrations
[9] = in vitro drug combination, clinical isolates, indicative of additive or synergistic activity

SMILES: CCC(C)CC(C)CCCCCCCCC(=O)N[C@H]1C[C@@H](O)[C@@H](NCCN)NC(=O)[C@@H]2[C@@H](O)CCN2C(=O)[C@H]([C@H](O)CCN)NC(=O)[C@H]([C@H](O)[C@@H](O)c2ccc(O)cc2)NC(=O)[C@@H]2C[C@@H](O)CN2C(=O)[C@H]([C@@H](C)O)NC1=O (stereo partly drawn) [Compound I]
- FIC values in vivo ([1]; Compound I and AmB, suggesting additive or synergistic activity in vivo): approximately 0.50
- adverse effects with combinations ([1]; Compound I combined with either AmB or FCZ, at high, use or lower concentrations): no adverse effects
- antagonism of efficacy ([1]; either AmB or FCZ combined with Compound I): no antagonism of efficacy
- antagonism of efficacy (C. neoformans [2]; FCZ in combination with Compound I, cryptococcosis in mice): no antagonism of efficacy
- effects on efficacy (C. neoformans [2]; combinations of Compound I and FCZ at certain concentrations): Beneficial effects on efficacy
- activity of combination therapy in vitro (A. fumigatus [3]; [8]): enhanced activity
- Fractional inhibitory indices (FIC) (A. fumigatus [3]; [9]): ≤ 0.50
- antagonism between Compound I and AmB (A. fumigatus [3]; in vitro, clinical isolates): no antagonism
- activity of combination therapy in vitro (C. albicans [4]; [8]): enhanced activity
- Fractional inhibitory indices (FIC) (C. albicans [4]; [9]): ≤ 0.50
- antagonism between Compound I and AmB (C. albicans [4]; in vitro, clinical isolates): no antagonism
- effect on activity of fluconazole (CFU numbers) (C. neoformans [5]; Compound I combined with fluconazole 0.25, 0.50 and 1.0 μg/ml): significantly enhanced the activity of fluconazole
- activity of combination therapy in vitro (C. neoformans [5]; Compound I with AmB and FCZ, sub-inhibitory concentrations, strains of C. neoformans): enhanced activity
- colony forming units (CFUs) (C. neoformans [5]; amphotericin B 0.0075, 0.015 and 0.03 μg/ml combined with Compound I 4, 8 and 16 μg/ml): markedly reduced
- Fractional inhibitory indices (FIC) (C. neoformans [5]; [9]): ≤ 0.50
- antagonism between Compound I and AmB (C. neoformans [5]; in vitro, clinical isolates): no antagonism
- efficacy of combination versus single agents (C. albicans [6]): more efficacious than either agent administered alone
- survival (A. fumigatus [7]): Significant improvement in survival
